Data from ChEMBL document CHEMBL6109084 (Eur J Med Chem, 2025).
Activity calls are given as the source filed them. The rule behind the calls is not given here.

Legend:
[1] = tested on: Mus musculus; experiment: In vivo inhibition of FXIa in FeCl3-induced carotid arterial thrombosis C57BL/6J mouse model assessed as decrease in FXIa level in plasma at 5 to 30 mg/kg, po measured after 0.5 hrs by ELISA; type: functional, organism-based; details: dose 5-30 mg/kg
[2] = Selectivity index, ratio of IC50 for inhibition of chymotrypsin (unknown origin) using N-Suc-Ala-Ala-Pro-Phe-pNA as substrate to IC50 for inhibition of human FXIa using p-Glu-Pro-Arg-pNA.HCl as substrate
[3] = Acute toxicity in C57BL/6J mouse assessed as effect on serum aspartate aminotransferase level at 60 to 100 mg/kg, po measured after 24 hrs; type: organism-based; details: in vivo, dose 60-100 mg/kg
[4] = tested on: Mus musculus; experiment: Antithrombotic activity in FeCl3-induced carotid arterial thrombosis C57BL/6J mouse model assessed as increase in blood flow velocity at 10 mg/kg, po measured after 0.5 to 4 hrs; type: functional, organism-based; details: time 0.5-4 hrs
[5] = Acute toxicity in C57BL/6J mouse assessed as pathological changes in lung at 60 to 100 mg/kg, po administered as single dose for 14 days by H and E staining based analysis; type: organism-based; details: in vivo, 336 h, dose 60-100 mg/kg, time 14 day
[6] = tested on: Plasma; experiment: Anticoagulant activity in citrated human plasma assessed as prolongation of activated partial thromboplastin time incubated for 3 mins by aPTT reagent based automated coagulometric analysis; type: functional
[7] = Acute toxicity in C57BL/6J mouse assessed as anaphylaxis response at 60 to 100 mg/kg, po administered as single dose for 14 days; type: organism-based; details: in vivo, 336 h, dose 60-100 mg/kg, time 14 day
[8] = target: Trypsin (Homo sapiens, UniProt P07477+P07478+P35030); experiment: Inhibition of trypsin (unknown origin) using Bz-Ile-Glu(gamma-OR)-Gly-Arg-pNA.HCl as substrate incubated for 30 mins followed by substrate addition and measured after 60 mins by microplate reader analysis; type: protein assay
[9] = tested on: Mus musculus; experiment: Antithrombotic activity in FeCl3-induced carotid arterial thrombosis C57BL/6J mouse model assessed as increase in peak velocity at 10 mg/kg, po measured after 2 to 4 hrs; type: functional, organism-based; details: time 2-4 hrs
[10] = target: Prothrombin (Homo sapiens, UniProt P00734); experiment: Inhibition of thrombin (unknown origin) using H-D-Phe-Pip-Arg-pNA.2HCl as substrate incubated for 30 mins followed by substrate addition and measured after 60 mins by microplate reader analysis
[11] = target: Coagulation factor XI (Homo sapiens, UniProt P03951); experiment: Inhibition of human FXIa using p-Glu-Pro-Arg-pNA.HCl as substrate incubated for 30 mins followed by substrate addition and measured after 60 mins by microplate reader analysis
[12] = Selectivity index, ratio of IC50 for inhibition of thrombin (unknown origin) using H-D-Phe-Pip-Arg-pNA.2HCl as substrate to IC50 for inhibition of human FXIa using p-Glu-Pro-Arg-pNA.HCl as substrate
[13] = Cytotoxicity against human AC16 [Human hybrid] cells assessed as reduction in cell viability at 1 to 50 uM incubated for 24 hrs by MTT assay; type: toxicity, cell-based; details: dose 1-50 µM
[14] = Acute toxicity in C57BL/6J mouse assessed as effect on serum alanine transaminase level at 60 to 100 mg/kg, po measured after 24 hrs; type: organism-based; details: in vivo, dose 60-100 mg/kg
[15] = Acute toxicity in C57BL/6J mouse assessed as pathological changes in kidney at 60 to 100 mg/kg, po administered as single dose for 14 days by H and E staining based analysis; type: organism-based; details: in vivo, 336 h, dose 60-100 mg/kg, time 14 day
[16] = target: Coagulation factor X (Homo sapiens, UniProt P00742); experiment: Inhibition of FXa (unknown origin) using Z-D-Arg-Gly-Arg-pNA.2HCl as substrate incubated for 30 mins followed by substrate addition and measured after 60 mins by microplate reader analysis
[17] = Acute toxicity in C57BL/6J mouse assessed as effect on plasma ALP level at 60 to 100 mg/kg, po measured after 24 hrs; type: organism-based; details: in vivo, dose 60-100 mg/kg
[18] = tested on: Plasma; experiment: Anticoagulant activity in citrated human plasma assessed as prolongation of prothrombin time incubated for 3 mins by PT reagent based automated coagulometric analysis; type: functional, cell-free
[19] = Selectivity index, ratio of IC50 for inhibition of plasmin (unknown origin) using PyroGlu-Phe-Lys-pNA.HCl as substrate to IC50 for inhibition of human FXIa using p-Glu-Pro-Arg-pNA.HCl as substrate
[20] = tested on: HepG2; experiment: Cytotoxicity against human HepG2 cells assessed as reduction in cell viability at 1 to 50 uM incubated for 24 hrs by MTT assay; type: toxicity, cell-based; details: hepg2, 24 h, dose 1-50 µM
[21] = Toxicity in C57BL/6J mouse assessed as prolongation of bleeding time at 30 to 60 mg/kg, IG measured after 30 mins by tail bleeding assay; type: organism-based; details: in vivo, po, 0.5 h, dose 30-60 mg/kg
[22] = tested on: HK-2; experiment: Cytotoxicity against human HK-2 cells assessed as reduction in cell viability at 1 to 50 uM incubated for 24 hrs by MTT assay; type: toxicity, cell-based; details: hk-2, 24 h, dose 1-50 µM
[23] = Selectivity index, ratio of IC50 for inhibition of trypsin (unknown origin) using Bz-Ile-Glu(gamma-OR)-Gly-Arg-pNA.HCl as substrate to IC50 for inhibition of human FXIa using p-Glu-Pro-Arg-pNA.HCl as substrate
[24] = Toxicity in male New Zealand white rabbit assessed as prolongation of bleeding time at 2 to 6 mg/kg, iv by ear bleeding assay; type: organism-based, Oryctolagus cuniculus; details: in vivo, dose 2-6 mg/kg
[25] = Selectivity index, ratio of IC50 for inhibition of FXIIa (unknown origin) using H-D-ProPhe-Arg-pNA.2HCl as substrate to IC50 for inhibition of human FXIa using p-Glu-Pro-Arg-pNA.HCl as substrate
[26] = Metabolic stability in human liver microsome assessed as half life; type: ADME; details: liver microsomes
[27] = Selectivity index, ratio of IC50 for inhibition of FXa (unknown origin) using Z-D-Arg-Gly-Arg-pNA.2HCl as substrate to IC50 for inhibition of human FXIa using p-Glu-Pro-Arg-pNA.HCl as substrate
[28] = Acute toxicity in C57BL/6J mouse assessed as weight loss at 60 to 100 mg/kg, po administered as single dose for 14 days; type: organism-based; details: in vivo, 336 h, dose 60-100 mg/kg, time 14 day
[29] = tested on: Oryctolagus cuniculus; experiment: Antithrombotic activity in FeCl3-induced carotid arterial thrombosis male New Zealand white rabbits model assessed as reduction in dry thrombus weight at 6 mg/kg, iv preincubated for 30 mins followed by FeCl3 application for 5 and measured after 45 mins relative to control; type: functional, organism-based; details: time 80.0 min
[30] = target: Tissue-type plasminogen activator (Homo sapiens, UniProt P00750); experiment: Inhibition of tPA (unknown origin) using H-D-Ile-Pro-Arg-pNA-2HCl as substrate incubated for 30 mins followed by substrate addition and measured after 60 mins by microplate reader analysis
[31] = Acute toxicity in C57BL/6J mouse assessed as effect on serum ALT level at 60 to 100 mg/kg, po administered as single dose for 14 days; type: organism-based; details: in vivo, 336 h, dose 60-100 mg/kg, time 14 day

Tissue-type plasminogen activator, sequence (P00750 whole entry): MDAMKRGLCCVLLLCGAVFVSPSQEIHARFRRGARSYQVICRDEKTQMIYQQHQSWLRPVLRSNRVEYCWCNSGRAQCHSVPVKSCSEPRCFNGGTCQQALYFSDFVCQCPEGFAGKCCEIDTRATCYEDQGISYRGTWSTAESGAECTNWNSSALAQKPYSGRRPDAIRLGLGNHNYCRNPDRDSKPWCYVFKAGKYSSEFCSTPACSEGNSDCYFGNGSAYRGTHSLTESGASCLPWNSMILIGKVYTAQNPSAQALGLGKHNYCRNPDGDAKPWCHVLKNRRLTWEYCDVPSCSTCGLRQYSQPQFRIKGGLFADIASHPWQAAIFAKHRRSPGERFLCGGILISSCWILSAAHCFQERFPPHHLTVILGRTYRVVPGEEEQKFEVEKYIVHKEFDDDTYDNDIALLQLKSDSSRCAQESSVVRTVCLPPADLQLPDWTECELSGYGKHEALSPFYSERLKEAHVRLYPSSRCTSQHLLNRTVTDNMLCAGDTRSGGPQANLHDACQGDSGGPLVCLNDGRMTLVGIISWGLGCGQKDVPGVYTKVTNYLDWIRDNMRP
Coagulation factor XI, sequence (P03951 19-387 limits assumed): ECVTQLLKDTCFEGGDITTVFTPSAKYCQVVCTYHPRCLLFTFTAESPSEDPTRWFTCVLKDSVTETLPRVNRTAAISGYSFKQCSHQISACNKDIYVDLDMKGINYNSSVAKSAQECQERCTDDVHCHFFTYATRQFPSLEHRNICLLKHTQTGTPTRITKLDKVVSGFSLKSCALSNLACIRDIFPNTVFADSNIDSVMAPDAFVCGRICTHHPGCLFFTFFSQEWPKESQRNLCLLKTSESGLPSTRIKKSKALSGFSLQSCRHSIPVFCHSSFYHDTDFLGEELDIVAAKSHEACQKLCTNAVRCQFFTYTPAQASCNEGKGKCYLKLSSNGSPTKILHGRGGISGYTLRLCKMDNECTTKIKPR
Coagulation factor XI, sequence (P03951 388-625 limits assumed): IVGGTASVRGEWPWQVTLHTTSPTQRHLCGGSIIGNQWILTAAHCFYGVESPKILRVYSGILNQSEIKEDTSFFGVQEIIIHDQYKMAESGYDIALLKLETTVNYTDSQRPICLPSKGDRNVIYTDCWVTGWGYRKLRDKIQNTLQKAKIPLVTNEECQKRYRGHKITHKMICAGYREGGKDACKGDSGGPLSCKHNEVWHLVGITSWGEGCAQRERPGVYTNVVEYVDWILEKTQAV
Coagulation factor X, sequence (P00742 41-179 limits assumed): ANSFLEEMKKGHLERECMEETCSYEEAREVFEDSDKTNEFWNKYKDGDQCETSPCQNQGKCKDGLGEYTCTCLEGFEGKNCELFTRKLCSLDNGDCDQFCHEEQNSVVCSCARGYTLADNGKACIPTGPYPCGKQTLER
Coagulation factor X, sequence (P00742 235-488 limits assumed): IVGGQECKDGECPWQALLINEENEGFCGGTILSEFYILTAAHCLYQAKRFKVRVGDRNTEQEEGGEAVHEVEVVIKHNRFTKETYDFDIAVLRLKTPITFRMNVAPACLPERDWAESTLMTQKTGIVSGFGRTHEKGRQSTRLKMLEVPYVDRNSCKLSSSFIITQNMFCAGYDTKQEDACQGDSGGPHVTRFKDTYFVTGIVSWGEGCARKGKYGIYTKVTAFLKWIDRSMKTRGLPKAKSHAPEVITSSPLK

In the case of COc1cn(Cc2cc(-c3ccc(N)nc3F)ccn2)c(=O)cc1-c1cc(Cl)ccc1-n1cnnn1, the inhibition [1] is reported as “Active”, the Ratio IC50 [2] is reported as > 1000 and the Activity [3] is reported as “Non-toxic”. For the same compound, the Activity [4] was “Active”, the Activity [5] was “Non-toxic” and the Activity [6] was “Dose-dependent-effect”. The EC1.5 ([6]; 0.05 h) was 0.43 µM, the Activity [7] was “Non-toxic” and the IC50 [8] was > 1000 nM. The Activity [9] was “Active; Pronounced Increase Observed Compared To Compound F”, the IC50 [10] was > 1000 nM and the IC50 [11] was 0.19 nM. The Ratio IC50 [12] was > 1000, the Activity [13] was “Non-toxic” and the Activity [14] was “Non-toxic”. For the same compound, the Activity [15] was “Non-toxic”, the IC50 [16] was > 1000 nM and the Activity [17] was “Non-toxic”. The Activity [18] was “inactive”, the Ratio IC50 [19] was > 1000 and the Activity [20] was “Non-toxic”. For the same compound, the Activity [21] was “Non-toxic”, the Activity [22] was “Non-toxic” and the Ratio IC50 [23] was > 1000. For the same compound, the Activity [24] was “Non-toxic”, the Ratio IC50 [25] was > 1000 and the half-life [26] was > 3 h. The Ratio IC50 [27] was > 1000, the Activity [28] was “Non-toxic” and the Activity [29] was “Active”. The IC50 [30] was > 1000 nM and the Activity [31] was “Non-toxic”.
